Assays:
IDO1 [1] = target: T1, IDO1 (Homo sapiens, UniProt P14902); test: IDO1 Human Whole blood Assay; format: cell-based; design: Human whole blood was drawn in sodium heparin coated tubes from healthy internal donors; from tissue; host or cells: human whole blood from healthy donors, stimulated with LPS and IFNγ; conditions: LPS and IFNγ stimulated, 18 h, read-out: Human Whole Blood Potency, IC50
Description: IDO1Human Whole blood Assay
Compounds to be tested were serially diluted in ten 3-fold steps in DMSO starting from 10 mM. 3 μL of compound dilutions or DMSO alone were then dispensed from the dilution plate into a polypropylene 96-well assay plate containing 97 μL of RPMI medium using an Echo 555 acoustic liquid handler (Labcyte). LPS and IFNγ was prepared in RPMI medium to a 10× of final conc. (1000 ng/mL), final concentration is 100 ng/mL.
Human whole blood was drawn in sodium heparin coated tubes from healthy internal donors. 240 μL of blood was transferred to each of the wells of a v-bottom 96 well plate. 30 μL of compound was transferred from intermediate dilution plate, and incubated for 15 min. 30 μL from stimulants was then transferred to blood and mixed thoroughly. Plate was covered with breathable membrane and incubated at 37° C. for overnight (18 h).
On day 2, isotope labeled standard solutions of kynurenine and tryptophan was made in water at 10× concentration and 30 μL was added to the blood at 3 μM final concentration. The assay plates were centrifuged at 300×G for 10 min with no brake to separate plasma from red blood cells. 60 μL of plasma samples was removed without disturbing red blood cells. Plasma was diluted with RPMI in 1:1 ratio and proteins were precipitated out with two volumes of Acetonitrile. The plates were centrifuged at 4000×G for 60 min. 20 μL of supernatant was carefully transferred to a 384 well plate containing 40 μL of 0.1% formic acid in water and analyzed by LC/MS/MS.
LC/MS/MS analyses were performed using Thermo Fisher's LX4-TSQ Quantum Ultra system. This system consists of four Agilent binary high-performance liquid chromatography (HPLC) pumps and a TSQ Quantum Ultra triple quadrupole MS/MS instrument. For each sample, 5 μL were injected onto an Atlantis T3 column (2.1 mm×150 mm, 3 μm particle size) from Waters. The mobile phase gradient pumped at 0.8 mL/min was used to elute the analytes from the column at 25° C. The elution started at 0% B increasing linearly to 25% B at 6.5 min, holding at 25% for 1 min, re-equilibrating to 10 min. Mobile phase A consisted of 0.1% formic acid in water. Mobile phase B consisted of 0.1% of formic acid in acetonitrile. Data were acquired in positive mode using a HESI interface. The operational parameters for the TSQ Quantum Ultra instrument were a spray voltage of 4000 V, capillary temperature of 380° C., vaporizer temperature 400° C., shealth gas 60 arbitrary units, Aux gas 20 arbitrary units, tube lens 85 and collision gas 1.2 mTorr. SRM chromatograms of kynurenine (Q1: 209.2>Q3:94.0) and internal standard (Q1: 215.3>Q3:98.2) were collected for 90 sec. The peak area was integrated by Xcalibur Quan software. The ratios between the kynurenine generated in the reaction and 2D6-Kynurenine spiked-in internal standard were used to generate percentage inhibition and IC50 values. Compounds were titrated and IC50's were calculated by 4 parameter sigmoidal curve fitting formula.

IDO1 [2] = target: T1, IDO1; test: IDO1 Cellular Assay in HeLa Cells Stimulated with IFNγ; format: cell-based; conditions: read-out: HeLa Cell Potency, IC50

T1 sequence (P14902 whole entry): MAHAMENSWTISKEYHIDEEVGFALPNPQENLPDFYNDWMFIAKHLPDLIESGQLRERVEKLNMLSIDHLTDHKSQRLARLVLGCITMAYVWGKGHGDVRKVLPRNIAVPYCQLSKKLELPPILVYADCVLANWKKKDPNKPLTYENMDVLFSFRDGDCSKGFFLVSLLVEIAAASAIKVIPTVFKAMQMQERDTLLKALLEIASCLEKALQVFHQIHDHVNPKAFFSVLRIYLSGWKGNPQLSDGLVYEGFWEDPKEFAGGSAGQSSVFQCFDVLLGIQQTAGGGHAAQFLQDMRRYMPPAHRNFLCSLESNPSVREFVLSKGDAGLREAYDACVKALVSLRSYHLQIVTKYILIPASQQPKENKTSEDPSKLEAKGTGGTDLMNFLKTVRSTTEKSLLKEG

SMILES | IC50 (IDO1 [1]) [µM] | IC50 (IDO1 [2]) [µM]
Cc1cccc(N2CCN(C(=O)Cn3nc(C(=O)N4CC[C@@H](O)[C@@H](F)C4)c4c3CC(F)C4)CC2)c1C (single isomer, unassigned) [Example 419] | 1.15 | 0.0108
Cc1c(F)ccc(N2CCN(C(=O)Cn3nc(C(=O)N4CCC(O)C(CO)C4)c4c3C[C@@H]3C[C@H]43)C3(CC3)C2)c1C (stereo in doubt) [Example 324, 1-[7-(4-fluoro-2,3-dimethylphenyl)-4,7-diazaspiro[2.5]octan-4-yl]-2-{(3bS,4aS)-3-[4-hydroxy-3-(hydroxymethyl)piperidine-1-carbonyl]-3b,4,4a,5-tetrahydro-1H-cyclopropa[3,4]cyclopenta[1,2-c]pyrazol-1-yl}ethan-1-one] | 0.555 | 0.00064
Cc1cccc(N2CCN(C(=O)Cn3nc(C(=O)N4CCCC4)c4c3CCCCC4)CC2)c1C [Example 5, 1-[4-(2,3-dimethylphenyl)piperazin-4-ium-1-yl]-2-[3-(pyrrolidine-1-carbonyl)-5,6,7,8-tetrahydro-4H-cyclohepta[c]pyrazol-1-yl]ethanone] | 0.414 | 0.00683
Cc1c(Cl)cccc1N1CCN(C(=O)Cn2nc(C(=O)N3C[C@@H](C)O[C@@H](C)C3)c3c2CCC3)CC1 [Example 68, 1-[4-(3-chloro-2-methylphenyl)piperazin-1-yl]-2-{3-[(2R,6S)-2,6-dimethylmorpholine-4-carbonyl]-5,6-dihydrocyclopenta[c]pyrazol-1(4H)-yl}ethan-1-one] | 1.01 | 0.0036
Cc1cccc(N2CCN(C(=O)Cn3nc(C(=O)N4CC[C@H](CO)C4)c4c3CCC4)CC2)c1C [Example 83, 1-[4-(2,3-dimethylphenyl)piperazin-1-yl]-2-{3-[(3S)-3-(hydroxymethyl)pyrrolidine-1-carbonyl]-5,6-dihydrocyclopenta[c]pyrazol-1(4H)-yl}ethan-1-one] | 3.49 | 0.00563
Cc1cccc(N2CCN(C(=O)Cn3nc(C(=O)N4CCC(O)CC4)c4c3CCC4)CC2)c1C [Example 87, 1-[4-(2,3-dimethylphenyl)piperazin-1-yl]-2-[3-(4-hydroxypiperidine-1-carbonyl)-5,6-dihydrocyclopenta[c]pyrazol-1(4H)-yl]ethan-1-one] | 2.3 | 0.00427
Cc1cccc(N2CCN(C(=O)Cn3nc(C(=O)N4CCN(S(=O)(=O)N(C)C)CC4)c4c3CCC4)CC2)c1C [Example 89, 4-(1-{2-[4-(2,3-dimethylphenyl)piperazin-1-yl]-2-oxoethyl}-1,4,5,6-tetrahydrocyclopenta[c]pyrazole-3-carbonyl)-N,N-dimethylpiperazine-1-sulfonamide] | 0.454 | 0.00296
Cc1cccc(N2CCN(C(=O)Cn3nc(C(=O)N4CCC(NS(C)(=O)=O)CC4)c4c3CCC4)CC2)c1C [Example 90, N-[1-(1-{2-[4-(2,3-dimethylphenyl)piperazin-1-yl]-2-oxoethyl}-1,4,5,6-tetrahydrocyclopenta[c]pyrazole-3-carbonyl)piperidin-4-yl]methanesulfonamide] | 0.292 | 0.0029
Cc1cccc(N2CCN(C(=O)Cn3nc(C(=O)N4CC[C@H](O)[C@H](F)C4)c4c3CCC4)CC2)c1C [Example 92, 1-[4-(2,3-dimethylphenyl)piperazin-1-yl]-2-{3-[(3R,4S)-3-fluoro-4-hydroxypiperidine-1-carbonyl]-5,6-dihydrocyclopenta[c]pyrazol-1(4H)-yl}ethan-1-one] | 0.256 | 0.0109

More lines, in order of falling IC50 (IDO1 [1]), values ahead:

IC50 (IDO1 [1]) [µM] | IC50 (IDO1 [2]) [µM] | SMILES
9.55 | 0.0058 | Cc1cccc(N2CCN(C(=O)Cn3nc(C(=O)N4CC[C@@H](O)[C@H](F)C4)c4c3CCC4)CC2)c1C [Example 91, 1-[4-(2,3-dimethylphenyl)piperazin-1-yl]-2-{3-[(3R,4R)-3-fluoro-4-hydroxypiperidine-1-carbonyl]-5,6-dihydrocyclopenta[c]pyrazol-1(4H)-yl}ethan-1-one]
2.47 | 0.0317 | Cc1cccc(N2CCN(C(=O)Cn3nc(C(=O)N4CC[C@@H](O)[C@@H](F)C4)c4c3CC(F)C4)CC2)c1C (single isomer, unassigned) [Example 418]
1.82 | 0.00875 | Cc1cccc(N2CCN(C(=O)Cn3nc(C(=O)N4CCCC4)c4c3CCC4)CC2)c1C [Example 1, 1-(4-(2,3-dimethylphenyl)piperazin-1-yl)-2-(3-(pyrrolidine-1-carbonyl)-5,6-dihydrocyclopenta[c]pyrazol-1(4H)-yl)ethanone]
0.802 | 0.00387 | Cc1cccc(N2CCN(C(=O)Cn3nc(C(=O)N4CC[C@@H](O)[C@@H](C)C4)c4c3CCC4)CC2)c1C [Example 106, 1-[4-(2,3-dimethylphenyl)piperazin-1-yl]-2-{3-[(3S,4R)-4-hydroxy-3-methylpiperidine-1-carbonyl]-5,6-dihydrocyclopenta[c]pyrazol-1(4H)-yl}ethan-1-one]
0.711 | 0.00612 | Cc1cccc(N2CCN(C(=O)Cn3nc(C(=O)N4CCC(CO)CC4)c4c3CCC4)CC2)c1C [Example 101, 1-[4-(2,3-dimethylphenyl)piperazin-1-yl]-2-{3-[4-(hydroxymethyl)piperidine-1-carbonyl]-5,6-dihydrocyclopenta[c]pyrazol-1(4H)-yl}ethan-1-one]
0.555 | 0.00488 | Cc1cccc(N2CCN(C(=O)Cn3nc(C(=O)N4CCCC4)c4c3CCCC4)CC2)c1C [Example 2, 1-[4-(2,3-dimethylphenyl)piperazin-4-ium-1-yl]-2-[3-(pyrrolidine-1-carbonyl)-4,5,6,7-tetrahydroindazol-1-yl]ethanone]
0.492 | 0.00293 | Cc1c(F)ccc(N2CCN(C(=O)Cn3nc(C(=O)N4C[C@@H](C)O[C@@H](C)C4)c4c3CCC4)CC2)c1C [Example 48, 2-{3-[(2R,6S)-2,6-dimethylmorpholine-4-carbonyl]-5,6-dihydrocyclopenta[c]pyrazol-1(4H)-yl}-1-[4-(4-fluoro-2,3-dimethylphenyl)piperazin-1-yl]ethan-1-one]
0.416 | 0.00256 | Cc1cccc(N2CCN(C(=O)Cn3nc(C(=O)N4C[C@@H](C)O[C@@H](C)C4)c4c3CCC4)CC2)c1C [Example 88, 2-{3-[(2R,6S)-2,6-dimethylmorpholine-4-carbonyl]-5,6-dihydrocyclopenta[c]pyrazol-1(4H)-yl}-1-[4-(2,3-dimethylphenyl)piperazin-1-yl]ethan-1-one]
0.345 | 0.00246 | Cc1cccc(N2CCN(C(=O)Cn3nc(C(=O)N4CC[C@H](O)[C@@H](C)C4)c4c3CCC4)CC2)c1C [Example 94, 1-[4-(2,3-dimethylphenyl)piperazin-1-yl]-2-{3-[(3S,4S)-4-hydroxy-3-methylpiperidine-1-carbonyl]-5,6-dihydrocyclopenta[c]pyrazol-1(4H)-yl}ethan-1-one]
0.18 | 0.00311 | Cc1cccc(N2CCN(C(=O)Cn3nc(C(=O)N4CCC5(CCOC5)CC4)c4c3CCC4)CC2)c1C [Example 93, 1-[4-(2,3-dimethylphenyl)piperazin-1-yl]-2-[3-(2-oxo-8-azaspiro[4.5]decane-8-carbonyl)-5,6-dihydrocyclopenta[c]pyrazol-1(4H)-yl]ethan-1-one]

— patent US12264134B2 (Merck Sharp & Dohme LLC, priority 2018, dated 2025)
